“Also recorded” adds a separate entry of the source. Each block holds one compound with its values, some of them ahead of it.
Columns and labels:
[1] = system: human oligodendrocytes cell cultures; assay: Metabolic conversion in human oligodendrocytes cell culture (HPLC-MS); format: in vitro ADME; settings: for 9CDHRA levels in cells after treatment (metabolism / accumulation): 10^−6M, n=3
Method in brief: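 Cultured human oligodendrocytes at 80% confluency were treated with each retinoid or carotenoid at 10^−6 M for 18 h, with ethanol vehicle as control. Harvested cells were analysed by HPLC-MS for 9CDHRA levels, n=3 with standard deviation.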

[2] = system: differentiating monocyte-derived human dendritic cells; assay: DNA microarray in differentiating monocyte-derived dendritic cells; format: cell-based
Method: The generation and transcriptional analysis of differentiating DCs were performed as described previously [Szeles L et al. 2010]. Microarray data were deposited into the Gene Expression Omnibus database under accession no. GSE48573.
The generation and analysis of differentiating DCs were performed as described previously [Szeles L et al. 2010] with minor modifications. Briefly, human monocytes were isolated from healthy volunteer's buffy coat, obtained with a Regional Ethical Board permit from the Regional Blood Bank and isolated by Ficoll gradient centrifugation followed by immunomagnetic cell separation, and were cultured in the presence of GM-CSF and IL-4. Differentiating DCs were stimulated 18 h after […] by various agonists for 12 h. The ligands were used in the following concentrations: 10 μM (R)-9CDHRA, 10 μM (S)-9CDHRA, 1 μM 9cisRA, 100 nM LG100268, 1 μM GW3965, 1 μM Rosiglitazone (RSG), 1 μM GW1516, 100 nM AM580. Experiments were performed in biological triplicates. Samples were processed and hybridized to Human Genome U133 Plus 2.0 Arrays. Data were analysed using to GeneSpring 12.6.1 software. In detail, normalization was performed using RMA summarization algorithm. […] Microarray data were deposited into the Gene Expression Omnibus database under accession no. GSE48573.

hRXRα LBD [3] = target: T1, hRXRα LBD (Homo sapiens, UniProt P19793); assay: Fluorescence quenching assay, binding to RXRα LBD
T1 sequence (P19793 223-462): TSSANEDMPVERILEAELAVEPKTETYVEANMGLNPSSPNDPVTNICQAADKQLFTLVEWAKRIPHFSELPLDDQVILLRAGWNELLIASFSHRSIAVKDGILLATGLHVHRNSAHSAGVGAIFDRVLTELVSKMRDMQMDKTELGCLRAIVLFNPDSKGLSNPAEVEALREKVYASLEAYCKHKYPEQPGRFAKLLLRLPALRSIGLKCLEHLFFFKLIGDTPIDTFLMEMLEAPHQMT
Method: Quenching of tryptophan fluorescence was monitored at 10° C. using 5 nm of excitation and 5 nm of emission slit-width.

[4] = Mouse oral supplementation, retinoid levels in serum, brain and liver (LC-MS); format: in vivo; settings: mice, per os 40 mg/kg, 11 h after treatment
hRXRα LBD [5] = target: T1, hRXRα LBD; assay: ESI-MS in non-denaturing conditions, binding to RXR LBD; design: cDNAs encoding hRXRα LBD (223-462); His-tag (N); made in house; settings: titration monitored by ESI-MS
Method: cDNAs encoding hRXRα LBD (223-462), hRARα LBD (153-421), hRARBβ LBD (169-414) and hRARγ LBD (178-423) were cloned into pET28b vector to generate N-terminal Histag fusion proteins. Purification was carried out as previously described [Lippert W P et al. 2009, Osz J, et al. 2012], including a metal affinity chromatography and a gel filtration. For details of sample preparation and ESI-MS analyses see below.
cDNAs encoding hRXRαLBD (223-462), hRARαLBD (153-421), hRARβLBD (169-414) and hRARγ LBD (178-423) were cloned into pET28b vector to generate N-terminal His-tag fusion proteins. Purification was carried out as previously described [Lippert W P et al. 2009, Osz J, et al. 2012], including a metal affinity chromatography and a gel filtration. Prior to ESI-MS analysis, samples were desalted on Zeba Spin desalting columns (Pierce) in 150 mM ammonium acetate (pH 8.0). ESI-MS measurements were performed on an electrospray time-of-flight mass spectrometer (MicrOTOF, Bruker Daltonics). Purity and homogeneity of the proteins were verified by mass spectrometry in denaturing conditions (samples were diluted at 2 pmol/μl in a 1:1 water-acetonitrile mixture (v/v) acidified with 1% formic acid). The mass measurements of the noncovalent complexes were performed in ammonium acetate (200 mM; pH 8.0). Samples were diluted to 8 pmol/ml in the previous buffer and continuously infused into the ESI ion source at a flow rate of […] through a Harvard syringe pump (Harvard Apparatus model 11). A careful optimization of the interface parameters was performed to obtain the best sensitivity and spectrum quality without affecting the noncovalent complexes stability. In particular, the capillary exit (CE) ranged from 60 to 150 V with a vacuum interface pressure of 2.3 mbar and was set to 80 V. For ligand-interaction analysis, ligands were added to the proteins in a 5-fold molar excess.

Rbp1−/− and Rxrγ−/− mice = assay: Y-maze spontaneous alternation; format: in vivo, mouse; settings: 5-6 hours prior to testing
Method: The Y-maze apparatus and the procedure were as previously described (Wietrzych et al., 2005). Briefly, each mouse was placed at the end of one arm and allowed to explore freely the apparatus for 5 min, with the experimenter out of the animal's sight. Spontaneous alternation performance (SAP) was assessed visually by scoring the pattern of entries into each arm and expressed as a percentage of total number of entries, discounting the first two visits. Total entries were scored as an index of ambulatory activity in the Y-maze, but none of tested mice had to be excluded due to low locomotor performance (score below 9 entries).
Vehicle treatments consisted of 3% ethanol and 3% DMSO solution in sunflower oil. Treatments were administered by intraperitoneal injections at volume/weight ratio 3 ml/kg between 8-10 am and 5-6 h before the test as previously validated (Wietrzych-Schindler M, 2011).

9CDHRA levels in cells after treatment (metabolism / accumulation) [1]: strong accumulation | Kd (hRXRα LBD [3]): 90 ± 20 nM
SMILES: CC(C=CC1=C(C)CCCC1(C)C)=CC=CC(C)CC(=O)O (stereo not drawn) [9CDHRA, 9-cis-13,14-dihydroretinoic acid]
expression of genes induced by AM580 (RAR-RXR target genes) [2]: also induced | transcripts regulated by LG268 (RXR-specific agonist) also regulated ([2]; 72 LG268 transcriptional targets): 68 out of 72

SMILES: CC1=C(/C=C/C(C)=C\C=C\C(C)CCO)C(C)(C)CCC1 (stereo not drawn) [9CDHROL, 9-cis-13,14-dihydroretinol]
9CDHRA levels in cells after treatment (metabolism / accumulation) [1]: moderately but significantly metabolized | precursor substrate of 9CDHROL ([1]; in vitro): excellent precursor substrates | 9CDHRA levels in serum, brain and liver after treatment (conversion to 9CDHRA) [4]: strong increase; also recorded: strongly increased; also recorded: best conversion | 9CDHROL levels in serum, brain and liver after treatment [4]: strongly increased; also recorded: strong and significantly increased levels

Kd (hRXRα LBD [3]): 90 ± 20 nM | higher affinity than (S)-9CDHRA for RXR LBD (peak amplitude) (hRXRα LBD [5]): about 65% | lower affinity than 9CRA for RXR LBD (peak amplitude) (hRXRα LBD [5]): approximately 30%
SMILES: CC1=C(/C=C/C(C)=C\C=C\[C@H](C)CC(=O)O)C(C)(C)CCC1 [(R)-9CDHRA, (9Z,13R)-13,14-Dihydroretinoic Acid]
overlap in transcriptional changes with 9CRA [2]: about 80% | share of all transcripts regulated by 9CRA that are similarly regulated by (R)-9CDHRA [2]: 85% | transcripts similarly regulated by both (R)-9CDHRA and 9CRA ([2]; 10 μM (R)-9CDHRA, 1 μM 9CRA): 384 | number of transcripts regulated ([2]; 10 μM (R)-9CDHRA, 1 μM 9CRA, 12 h, FC>2): 518 | expression of genes that are direct targets of RXR permissive heterodimers (LXR-RXR, PPAR-RXR) and RAR-RXR ([2]; 9CDHRA 10 μM, 9CRA 1 μM, LG268 100 nM, GW3965 1 μM, RSG 1 μM, GW1516 1 μM, AM580 100 nM): induced the expression of genes; also recorded: induce the expression of many genes

SMILES: CC1(C)CCC(C)(C)c2cc(C3(c4ccc(C(=O)O)cc4)OCCO3)ccc21 [UVI2108, reference compound]
working memory in spontaneous alternation in the Y-maze (Rbp1−/− and Rxrγ−/− mice; Rbp1−/− mice, ATRA 5 mg/kg, UVI2108 1 mg/kg, MA 5 mg/kg, DHA 1 mg/kg, TTNPB 5 mg/kg): normalised; also recorded: pro-mnemonic effects | working memory in spontaneous alternation in the Y-maze (Rbp1−/− and Rxrγ−/− mice; Rxrγ−/− mice, same doses): not

Reference: patent US12029715B2, “Precursor compounds for providing retinoids of the vitamin A5 pathway and uses thereof” (UNIVERSITY OF DEBRECEN, priority 2015, dated 2024)
